Here are results for 6 molecules from ChEMBL document CHEMBL4024712, “Synthesis, stability and mechanistic studies of potent anticryptococcal hexapeptides” (Eur J Med Chem, 2017).

SMILES strings stand for the structures. ≈ marks a conversion by molar mass, not a printed value. Non-standard residues stand in square brackets, D forms with d. Residues, ends and D or L forms follow the SMILES beside them. Ala(9-anthryl) = N[C@@H](Cc1c2ccccc2cc2ccccc12)C(=O)O; His(τ-Bzl) = N[C@@H](Cc1cn(Cc2ccccc2)cn1)C(=O)O; Phe(4-Me) = Cc1ccc(C[C@H](N)C(=O)O)cc1; Bta = N[C@@H](Cc1csc2ccccc12)C(=O)O; Cha = N[C@@H](CC1CCCCC1)C(=O)O; Orn = NCCC[C@H](N)C(=O)O

The subject of data set [1] is Pseudomonas aeruginosa. Briefly: Anti-bacterial activity against Pseudomonas aeruginosa ATCC 27853 by CLSI method. The format is functional.
The subject of data set [2] is Staphylococcus aureus. Briefly: Anti-bacterial activity against Staphylococcus aureus ATCC 29213 by CLSI method. The format is functional. The conditions noted are these: Staphylococcus aureus, ATCC 29213.
Data set [3] has as its system Pichia kudriavzevii. Put plainly: Fungicidal activity against Candida krusei ATCC 6258 after 18 to 24 hrs by Alamar blue assay. The format is functional. For orientation: Alamar Blue is a resazurin reagent that responds to reducing activity.
Data set [4] has as its system Candida albicans. Briefly: Antifungal activity against Candida albicans ATCC 90028 after 18 to 24 hrs by Alamar blue assay. The format is functional.
The test system of data set [5] is Mycobacterium intracellulare. Put plainly: Anti-bacterial activity against Mycobacterium intracellulare ATCC 23068 after 68 to 72 hrs by Alamar blue assay. The conditions noted are these: for MIC: Mycobacterium intracellulare, ATCC 23068. The format is functional, cell-based.
In data set [6] the test system is Vero. Briefly: Cytotoxicity against African green monkey Vero cells up to 10 ug/ml after 48 hrs by neutral red dye based assay. The format is cell-based. The conditions noted are these: chlorocebus sabaeus.
The subject of data set [7] is Cryptococcus neoformans. Put plainly: Antifungal activity against Cryptococcus neoformans ATCC 90113 after 68 to 72 hrs by Alamar blue assay. The format is functional.
Data set [8] concerns Nakaseomyces glabratus. Briefly: Antifungal activity against Candida glabrata ATCC 90030 after 18 to 24 hrs by Alamar blue assay. The format is functional.
Data set [9] deals with Aspergillus fumigatus. Put plainly: Antifungal activity against Aspergillus fumigatus ATCC 90906 after 68 to 72 hrs by Alamar blue assay. The format is functional.
In data set [10] the test system is Nakaseomyces glabratus. Briefly: Fungicidal activity against Candida glabrata ATCC 90030 after 18 to 24 hrs by Alamar blue assay. The format is functional.
The subject of data set [11] is Escherichia coli. Put plainly: Anti-bacterial activity against Escherichia coli ATCC 35218 by CLSI method. The conditions noted are these: for MIC: Escherichia coli, ATCC 35218. The format is functional.
Data set [12] relates to Pichia kudriavzevii. Put plainly: Antifungal activity against Candida krusei ATCC 6258 after 18 to 24 hrs by Alamar blue assay. The format is functional. The conditions noted are these: Pichia kudriavzevii, ATCC 6258.
The subject of data set [13] is Mycobacterium intracellulare. Put plainly: Bactericidal activity against Mycobacterium intracellulare ATCC 23068 after 68 to 72 hrs by Alamar blue assay. The format is functional.
The subject of data set [14] is Staphylococcus aureus. Briefly: Bactericidal activity against Staphylococcus aureus ATCC 29213 by CLSI method. The format is functional.
Data set [15] relates to Candida albicans. Put plainly: Fungicidal activity against Candida albicans ATCC 90028 after 18 to 24 hrs by Alamar blue assay. The format is functional.
Data set [16] concerns Staphylococcus aureus. Briefly: Bactericidal activity against methicillin-resistant Staphylococcus aureus ATCC 33591 by CLSI method. The format is functional.
Data set [17] concerns Staphylococcus aureus. Put plainly: Anti-bacterial activity against methicillin-resistant Staphylococcus aureus ATCC 33591 by CLSI method. The format is functional. The conditions noted are these: Staphylococcus aureus, ATCC 33591.
In data set [18] the test system is Cryptococcus neoformans. Put plainly: Fungicidal activity against Cryptococcus neoformans ATCC 90113 after 68 to 72 hrs by Alamar blue assay. The format is functional.
In data set [19] the test system is Escherichia coli. Briefly: Bactericidal activity against Escherichia coli ATCC 35218 by CLSI method. The format is functional.
The subject of data set [20] is Aspergillus fumigatus. Put plainly: Fungicidal activity against Aspergillus fumigatus ATCC 90906 after 68 to 72 hrs by Alamar blue assay. The format is functional.
Where [21] appears, read: Nakaseomyces glabratus, ATCC 90030.

Usually IC50 stands for the point on the concentration scale where inhibition reaches its midpoint. For orientation: MFC means the lowest tested concentration that kills the fungus rather than only halting it. The MIC is the lowest concentration found to suppress growth. As for `CC[C@H](C)[C@H](NC(=O)[C@H](CC1CCCCC1)NC(=O)[C@@H](Cc1c[nH]c2ccccc12)NC(=O)[C@@H](N)CCCN)C(=O)N[C@@H](Cc1csc2ccccc12)C(=O)N[C@@H](Cc1cn(Cc2ccccc2)cn1)C(N)=O` (H-[Orn][dW][Cha]I[Bta][His(τ-Bzl)]-NH2), the half-inhibitory concentration (IC50) entry in [1] was “Not Active”; in data set [2] (read-out: IC50), 20 µg/mL (≈ 19.7 µM); in data set [4], “Not Active”; in data set [5], “Not Active”; in data set [9], “Not Active”; in data set [11] it was “Not Active”. Moreover, the MFC in data set [3] and in [10] was 20 µg/mL (≈ 19.7 µM) in each case. Moreover, the Activity result in [6] is given as “Non-Toxic”. Further, the minimum inhibitory concentration (MIC) in [7] came to 1.25 µg/mL (≈ 1.23 µM); in data set [8] (setting [21]) it was 20 µg/mL (≈ 19.7 µM).
As usually defined, the MBC is the lowest tested concentration that kills the bacteria rather than only halting them. For the molecule `CC(C)C[C@H](NC(=O)[C@H](CC1CCCCC1)NC(=O)[C@@H](Cc1c[nH]c2ccccc12)NC(=O)[C@@H](N)CCCN)C(=O)N[C@H](Cc1ccccc1)C(=O)N[C@@H](Cc1cn(Cc2ccccc2)cn1)C(N)=O` (H-[Orn][dW][Cha]L[dF][His(τ-Bzl)]-NH2), the half-maximal inhibitory concentration (IC50) result in data set [1], in data set [4], in data set [8], in data set [9] and in data set [11] was “Not Active” in each case. In [3], this molecule displayed a minimum fungicidal concentration (MFC) of 20 µg/mL (≈ 20.9 µM). Moreover, the MIC in [12] was 20 µg/mL (≈ 20.9 µM); in data set [5], 20 µg/mL (≈ 20.9 µM); in data set [7], 5 µg/mL (≈ 5.22 µM). Further, the minimal bactericidal concentration (MBC) in [13] and in [14] was 20 µg/mL (≈ 20.9 µM) each time. The Activity entry in data set [6] was “Non-Toxic”.
Regarding `CC[C@H](C)[C@H](NC(=O)[C@H](CC1CCCCC1)NC(=O)[C@@H](Cc1c[nH]c2ccccc12)NC(=O)[C@@H](N)CCCN)C(=O)N[C@@H](Cc1c2ccccc2cc2ccccc12)C(=O)N[C@@H](Cc1cn(Cc2ccccc2)cn1)C(N)=O` (H-[Orn][dW][Cha]I[Ala(9-anthryl)][His(τ-Bzl)]-NH2), the IC50 result in [1], in data set [5], in data set [9] and in data set [11] was “Not Active” in each case. The minimum inhibitory concentration (MIC) in data set [2] came to 5 µg/mL (≈ 4.72 µM); in [17] it was 10 µg/mL (≈ 9.45 µM); in [7] it was 1.25 µg/mL (≈ 1.18 µM); in [8] (setting [21]) it was 20 µg/mL (≈ 18.9 µM). Moreover, the minimum fungicidal concentration (MFC) in data set [15] stood at 20 µg/mL (≈ 18.9 µM); in [3], 10 µg/mL (≈ 9.45 µM); in data set [10], 20 µg/mL (≈ 18.9 µM). For the same molecule, in data set [16], the MBC came to 10 µg/mL (≈ 9.45 µM). Further, the Activity result in [6] is reported as “Non-Toxic”.
Regarding `Cc1ccc(C[C@H](NC(=O)[C@@H](Cc2ccccc2)NC(=O)[C@@H](Cc2c[nH]c3ccccc23)NC(=O)[C@@H](N)CCCNC(=N)N)C(=O)N[C@H](Cc2ccccc2)C(=O)N[C@@H](Cc2cn(Cc3ccccc3)cn2)C(N)=O)cc1` (H-R[dW][dF][Phe(4-Me)][dF][His(τ-Bzl)]-NH2), the concentration for half-maximal inhibition (IC50) entry in [1], in data set [8] and in data set [9] was “Not Active” throughout. The MFC in data set [15] came out at 20 µg/mL (≈ 19.2 µM); in data set [18], 2.5 µg/mL (≈ 2.4 µM). The MIC in data set [12] was 20 µg/mL (≈ 19.2 µM); in data set [4] (Candida albicans, ATCC 90028), 20 µg/mL (≈ 19.2 µM); in [17], 20 µg/mL (≈ 19.2 µM); in data set [7], 2.5 µg/mL (≈ 2.4 µM); in [11], 10 µg/mL (≈ 9.59 µM). For the same molecule, the MBC was found to be 10 µg/mL (≈ 9.59 µM) in data set [13], 20 µg/mL (≈ 19.2 µM) in [16], 20 µg/mL (≈ 19.2 µM) in data set [14] and 20 µg/mL (≈ 19.2 µM) in data set [19]. In addition, the Activity result in [6] is listed as “Non-Toxic”.
For the molecule `C[C@@H]1[C@H](O)[C@@H](C)/C=C/C=C/C=C/C=C/C=C/C=C/C=C/[C@H](O[C@@H]2O[C@H](C)[C@@H](O)[C@H](N)[C@@H]2O)C[C@@H]2O[C@](O)(C[C@@H](O)C[C@@H](O)[C@H](O)CC[C@@H](O)C[C@@H](O)CC(=O)O[C@H]1C)C[C@H](O)[C@H]2C(=O)O` [AMPHOTERICIN B], the MIC in data set [8] (setting [21]) was 0.63 µg/mL (≈ 0.682 µM). The 50% inhibitory concentration (IC50) in data set [8] (Nakaseomyces glabratus, ATCC 90030, read-out: IC50) was 0.34 µg/mL (≈ 0.368 µM); in data set [9] (Aspergillus fumigatus, ATCC 90906, read-out: IC50) it was 1.2 µg/mL (≈ 1.3 µM). In addition, the minimum fungicidal concentration (MFC) in data set [20] amounted to 5 µg/mL (≈ 5.41 µM).
In the case of `Cc1ccc(C[C@H](NC(=O)[C@@H](Cc2ccccc2)NC(=O)[C@@H](Cc2c[nH]c3ccccc23)NC(=O)[C@@H](N)CCCCN)C(=O)N[C@H](Cc2ccccc2)C(=O)N[C@@H](Cc2cn(Cc3ccccc3)cn2)C(N)=O)cc1` (H-K[dW][dF][Phe(4-Me)][dF][His(τ-Bzl)]-NH2), the half-inhibitory concentration (IC50) entry in data set [1], in data set [4], in data set [8] and in [9] was “Not Active” in each case. For the same molecule, the minimum inhibitory concentration (MIC) came out at 20 µg/mL (≈ 19.7 µM) in data set [2]; 20 µg/mL (≈ 19.7 µM) in [12]; 20 µg/mL (≈ 19.7 µM) in data set [17]; 20 µg/mL (≈ 19.7 µM) in data set [5]; 2.5 µg/mL (≈ 2.46 µM) in [7]; 20 µg/mL (≈ 19.7 µM) in data set [11]. Further, in data set [3], the MFC was found to be 20 µg/mL (≈ 19.7 µM). Further, the MBC in data set [13], in data set [14] and in data set [19] was 20 µg/mL (≈ 19.7 µM) throughout. In addition, the Activity entry in data set [6] is “Non-Toxic”.
